Assay results taken from PMC9127750, “Structure-based design of CDC42 effector interaction inhibitors for the treatment of cancer” (Cell reports, 2022).
“And” between values parts separate entries of the source, which are not always exact repeats. Identical values can stand only once.

Test system: WM3248 melanoma cells, 486 antibodies
Test: Reverse phase protein arrays (RPPA)
Format: cell-based, Human
Excerpt: Pellets were snap frozen in liquid nitrogen and shipped to MD Anderson Cancer Center core RPPA facility for RPPA analysis (Table S5). Three biological replicates for each sample were generated.
Nomenclatures on the RPPA heatmaps: name_of_antibody.species_of_antibody.status_of_antibody. V - antibody validated; C - validation of antibody in progress; Q - antibody nonspecific; E – under evaluation; antibodies raised in M - mouse, G - goat, R - rabbit, or T - rat.

[1] = Norm_20: replicates 1-3 and Average, relative to 0

## CN(C)c1cccc(Nc2cc(-c3ccccc3)nc(C3CCNCC3)n2)c1 [ARN22089, N1,N1-dimethyl-N3-(6-phenyl-2-(piperidin-4-yl)pyrimidin-4-yl)benzene-1,3-diamine]
Norm_20, normalized to Norm_0
  PEA.15.R.V Average: 1.052
  PEA.15_pS116.R.V Average: 0.946
  PERK.R.V Average: 1.025
  PGM1.R.V Average: 0.977
  PHGDH.R.C Average: 1.014
  PHLPP.R.V Average: 1.227
  PI3K.p85.R.C Average: 0.845
  PI3K.p110.a.R.C Average: 0.888
  PI3K.p110.b.M.C Average: 0.953
  PKA.a.R.V Average: 0.999
  PKC.a.b.II_pT638_T641.R.V Average: 0.901
  PKC.b.II_pS660.R.V Average: 1.030
  PKCa.R.V Average: 1.322
  PKM2.R.C Average: 1.001
  PLK1.R.C Average: 0.902
  PMS2.R.V Average: 0.963
  PR.R.V Average: 0.888
  PRAS40.M.C Average: 1.217
  PRAS40_pT246.R.V Average: 1.170
  PRC1_pT481.R.C Average: 1.054
  Patched.R.C Average: 1.056
  Paxillin.R.C Average: 0.857
  Pdcd4.R.C Average: 0.984
  Porin.M.V Average: 1.080
  p21.R.C Average: 0.757
  p27.Kip1.R.C Average: 1.199
  p27_pT157.R.C Average: 1.392
  p27_pT198.R.V Average: 1.105
  p38.MAPK.R.V Average: 0.992
  p38.MAPK._pT180_Y182.R.V Average: 0.965
  p38.a.M.V Average: 0.909
  p44.42.MAPK.R.V Average: 1.224
  p53.R.C Average: 1.197
  p70.S6K1.R.V Average: 1.144
  p70.S6K_pT389.R.V Average: 0.981
  p90RSK_pT573.R.C Average: 0.937
[1]
  PREX1.R.V normalized RPPA signal: 1.049 and 0.907 and 1.063 and 1.006
  PTEN.R.V normalized RPPA signal: 1.227 and 1.032 and 1.101
  PTPN12.R.V normalized RPPA signal: 0.953 and 1.002 and 1.471 and 1.142
  PYGB.R.V normalized RPPA signal: 1.322 and 1.252 and 1.214
  PYGM.M.C normalized RPPA signal: 0.919 and 1.127 and 1.743 and 1.263
  Puma.R.C normalized RPPA signal: 1.011 and 1.199
  Pyk2_pY402.R.C normalized RPPA signal: 1.106 and 1.030 and 0.994
  RBM15.R.V normalized RPPA signal: 1.053 (2×) and 1.142 and 1.083
  RIP3.R.C normalized RPPA signal: 1.022 and 0.957 and 0.979 and 0.986
  RIP.R.C normalized RPPA signal: 0.835 and 1.185 and 1.165 and 1.062
  RPA32.R.V normalized RPPA signal: 1.395 and 1.278 and 1.255
  RPA32_pS4_S8.R.C normalized RPPA signal: 2.064 and 2.369 and 1.687 and 2.040
  RRM1.R.C normalized RPPA signal: 0.973 and 0.832 and 0.977 and 0.927
  RRM2.R.C normalized RPPA signal: 0.797 and 0.718 and 1.114 and 0.876
  RSK1.R.V normalized RPPA signal: 1.025 and 1.192 and 1.102
  RSK.R.C normalized RPPA signal: 0.897 and 1.161
  Rab11.R.C normalized RPPA signal: 0.945 and 1.018
  Rab25.R.V normalized RPPA signal: 1.022 and 0.964 and 0.955 and 0.980
  Rad17_pS645.R.V normalized RPPA signal: 0.978 and 0.844 and 0.971
  Rad23A.R.C normalized RPPA signal: 0.902 and 0.794 and 1.765 and 1.154
  Rad50.R.V normalized RPPA signal: 1.096 and 1.085 and 1.310 and 1.164
  Rad51.R.C normalized RPPA signal: 0.693 and 0.792 and 0.842 and 0.776
  Raptor.R.V normalized RPPA signal: 0.796 and 0.917 and 1.035 and 0.916
  Rb.M.Q normalized RPPA signal: 0.868 and 1.016 and 1.009 and 0.964
  Rb_pS807_S811.R.V normalized RPPA signal: 0.751 and 0.680 and 0.842
  Rheb.M.C normalized RPPA signal: 1.435 and 1.017 and 1.212
  Rictor.R.C normalized RPPA signal: 0.973 and 1.010 and 1.009
  Rictor_pT1135.R.V normalized RPPA signal: 0.917 and 1.033 and 0.998
  S6.M.V normalized RPPA signal: 1.331 and 0.833
  S6_pS235_S236.R.V normalized RPPA signal: 0.159 and 0.167 and 0.469 and 0.265
  S6_pS240_S244.R.V normalized RPPA signal: 0.113 and 0.501 and 0.240
  SCD.M.V normalized RPPA signal: 0.924 and 0.950 and 0.971
  SDHA.R.V normalized RPPA signal: 1.123 and 1.101 and 1.057
  SF2.R.V normalized RPPA signal: 1.010 and 0.957
  SFRP1.R.V normalized RPPA signal: 0.979 and 1.009 and 0.863 and 0.950
  SGK1.R.V normalized RPPA signal: 0.759 and 0.622 and 1.145 and 0.842
  SGK3.R.V normalized RPPA signal: 0.855 and 0.956 and 0.913 and 0.908
  SHP2.R.V normalized RPPA signal: 0.966 and 1.028 and 0.923 and 0.972
  SHP.2_pY542.R.C normalized RPPA signal: 1.218 and 1.287 and 1.191
  SIRPαR.V normalized RPPA signal: 1.172 and 0.832 and 0.694 and 0.900
  SLC1A5.R.C normalized RPPA signal: 1.248 and 1.028 and 1.189 and 1.155
  SOD1.M.V normalized RPPA signal: 0.834
  SOD2.R.V normalized RPPA signal: 1.108 and 1.226 and 0.894 and 1.076
  SOX7.R.V normalized RPPA signal: 1.078 and 1.212 and 1.083 and 1.124
  STING.R.V normalized RPPA signal: 0.848 and 1.021
